A value given as a limit tells only on which side of the number the result lay.

The test system of one test is HBV (encapsidated HBV DNA, HepG2.2.15 cells). Kind of test: HBV replication inhibition assay, BDNA assay in HepG2.2.15 cells. In kind it is cell-based. The conditions noted are these: Activity in BDNA-assay. An outline of the steps:
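Encapsidated HBV DNA in DNase-treated, proteinase K-lysed supernatant was measured by branched DNA after 6 days' compound exposure, refreshed on day 3, of HepG2.2.15 cells in 0.5% DMSO. Signals normalized to DMSO-treated wells; EC50 from nonlinear regression of inhibition against log concentration.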
Consider `CCC(O)C1CN(C)C(=O)c2c3c(nn2C1)CC(C)N(C(=O)Nc1ccc(F)c(C#N)c1)C3` [Compound 108_D1, (3R,8S*)—N-(3-cyano-4-fluorophenyl)-8-((R)-1-hydroxypropyl)-3,10-dimethyl-11-oxo-1,3,4,7,8,9,10,11-octahydro-2H-pyrido[4′,3′:3,4]pyrazolo[1,5-a][1,4]diazepine-2-carboxamide], for which the EC50 was 1 to 100 nM. Regarding `CCC(O)C1CN(C)C(=O)c2c3c(nn2C1)CC(C)N(C(=O)Nc1ccc(F)c(C#N)c1)C3` [Compound 108_D2, (3R,8R*)—N-(3-cyano-4-fluorophenyl)-8-((R)-1-hydroxypropyl)-3,10-dimethyl-11-oxo-1,3,4,7,8,9,10,11-octahydro-2H-pyrido[4′,3′:3,4]pyrazolo[1,5-a][1,4]diazepine-2-carboxamide], the concentration for a half-maximal effect (EC50) was 100 to 500 nM.

As for `CCC(O)C1CN(C)C(=O)c2c3c(nn2C1)CC(C)N(C(=O)Nc1ccc(F)c(Br)c1)C3` [Compound 109_D2, (3R,8R*)—N-(3-bromo-4-fluorophenyl)-8-((R)-1-hydroxypropyl)-3,10-dimethyl-11-oxo-1,3,4,7,8,9,10,11-octahydro-2H-pyrido[4′,3′:3,4]pyrazolo[1,5-a][1,4]diazepine-2-carboxamide], the EC50 is 1 to 100 nM. Still for that read-out and setting: the figure for `CN1CC(C(O)CCF)Cn2nc3c(c2C1=O)CN(C(=O)Nc1ccc(F)c(Cl)c1)CC3` (stereo not drawn) [Compound 115, N-(3-chloro-4-fluoro-phenyl)-8-(3-fluoro-1-hydroxy-propyl)-10-methyl-1-oxo-1,3,4,7,8,9-hexahydropyrido[2,3]pyrazolo[2,4-b][1,4]diazepine-2-carboxamide] is 1 to 100 nM. On to `C=CC(O)C1CN(C)C(=O)c2c3c(nn2C1)CC(C)N(C(=O)Nc1ccc(F)c(C(F)(F)F)c1)C3` [Compound 122_D1, (3R,8S*)—N-(4-fluoro-3-(trifluoromethyl)phenyl)-8-((R*)-1-hydroxyallyl)-3,10-dimethyl-11-oxo-1,3,4,7,8,9,10,11-octahydro-2H-pyrido[4′,3′:3,4]pyrazolo[1,5-a][1,4]diazepine-2-carboxamide], for which the EC50 fell in the range of 1 to 100 nM.

Consider `C=CC(O)C1CN(C)C(=O)c2c3c(nn2C1)CC(C)N(C(=O)Nc1ccc(F)c(C(F)(F)F)c1)C3` [Compound 122_D2, (3R,8S*)—N-(4-fluoro-3-(trifluoromethyl)phenyl)-8-((S*)-1-hydroxyallyl)-3,10-dimethyl-11-oxo-1,3,4,7,8,9,10,11-octahydro-2H-pyrido[4′,3′:3,4]pyrazolo[1,5-a][1,4]diazepine-2-carboxamide], for which the EC50 was 100 to 500 nM.

The test is the same for the next values; noted with them: Hepatitis B virus, HepG2.2.15, Activity in BDNA-assay.
On to `CCC(O)C1CN(C)C(=O)c2c3c(nn2C1)CC(C)N(C(=O)Nc1ccc(F)c(Br)c1)C3` [Compound 109_D1, (3R,8 S*)—N-(3-bromo-4-fluorophenyl)-8-((R)-1-hydroxypropyl)-3,10-dimethyl-11-oxo-1,3,4,7,8,9,10,11-octahydro-2H-pyrido[4′,3′:3,4]pyrazolo[1,5-a][1,4]diazepine-2-carboxamide], for which the concentration for a half-maximal effect (EC50) is 1 to 100 nM. On the same count and under the same terms, the figure for `CN1CCCCn2nc3c(c2C1=O)CN(C(=O)Nc1ccc(F)c(Cl)c1)CC3` [Compound 110, N-(3-chloro-4-fluorophenyl)-11-methyl-12-oxo-3,4,7,8,9,10,11,12-octahydropyrido[4′,3′:3,4]pyrazolo[1,5-a][1,4]diazocine-2 (1H)-carboxamide] is 1 to 100 nM. Same read-out and setting: the figure for `CN1C/C=C\Cn2nc3c(c2C1=O)CN(C(=O)Nc1ccc(F)c(Cl)c1)CC3` [Compound 111, (Z)—N-(3-chloro-4-fluorophenyl)-11-methyl-12-oxo-3,4,7,10,11,12-hexahydropyrido[4′,3′:3,4]pyrazolo[1,5-a][1,4]diazocine-2 (1H)-carboxamide] is 1 to 100 nM; for `CN1CCC(C(=O)O)n2nc3c(c2C1=O)CN(C(=O)Nc1ccc(F)c(Cl)c1)CC3` (stereo not drawn) [Compound 113, 2-((3-chloro-4-fluorophenyl)carbamoyl)-10-methyl-11-oxo-1,3,4,7,8,9,10,11-octahydro-2H-pyrido[4′,3′:3,4]pyrazolo[1,5-a][1,4]diazepine-7-carboxylic acid] it is more than 1000 nM; for `CN1CCC(CO)n2nc3c(c2C1=O)CN(C(=O)Nc1ccc(F)c(Cl)c1)CC3` (stereo not drawn) [Compound 114, N-(3-chloro-4-fluorophenyl)-7-(hydroxymethyl)-10-methyl-11-oxo-1,3,4,7,8,9,10,11-octahydro-2H-pyrido[4′,3′:3,4]pyrazolo[1,5-a][1,4]diazepine-2-carboxamide] it is 1 to 100 nM. The same measure, in the same setting: the figure for `CN1CC(C(O)CC(F)F)Cn2nc3c(c2C1=O)CN(C(=O)Nc1ccc(F)c(Cl)c1)CC3` (stereo not drawn) [Compound 116, N-(3-chloro-4-fluoro-phenyl)-8-(3,3-difluoro-1-hydroxy-propyl)-10-methyl-1-oxo-1,3,4,7,8,9-hexahydropyrido[2,3]pyrazolo[2,4-b][1,4]diazepine-2-carboxamide] is 1 to 100 nM; for `CC(=O)NCC1CN(C)C(=O)c2c3c(nn2C1)CCN(C(=O)Nc1ccc(F)c(Cl)c1)C3` (stereo not drawn) [Compound 117, 8-(acetamidomethyl)-N-(3-chloro-4-fluorophenyl)-10-methyl-11-oxo-1,3,4,7,8,9,10,11-octahydro-2H-pyrido[4′,3′:3,4]pyrazolo[1,5-a][1,4]diazepine-2-carboxamide] it is 1 to 100 nM; for `CN1CC(CNCC(F)F)Cn2nc3c(c2C1=O)CN(C(=O)Nc1ccc(F)c(C#N)c1)CC3` (stereo not drawn) [Compound 118, N-(3-cyano-4-fluorophenyl)-8-(((2,2-difluoroethyl)amino)methyl)-10-methyl-11-oxo-1,3,4,7,8,9,10,11-octahydro-2H-pyrido[4′,3′:3,4]pyrazolo[1,5-a][1,4]diazepine-2-carboxamide] it is 1 to 100 nM. For `CN1CC(CNCC(F)F)Cn2nc3c(c2C1=O)CN(C(=O)Nc1ccc(F)c(C(F)(F)F)c1)CC3` (stereo not drawn) [Compound 119, 8-(((2,2-difluoroethyl)amino)methyl)-N-(4-fluoro-3-(trifluoromethyl)phenyl)-10-methyl-11-oxo-1,3,4,7,8,9,10,11-octahydro-2H-pyrido[4′,3′:3,4]pyrazolo[1,5-a][1,4] diazepine-2-carboxamide], the 50% effective concentration (EC50) lay within 1 to 100 nM.

Regarding `CN1CC(CNCC(F)(F)F)Cn2nc3c(c2C1=O)CN(C(=O)Nc1ccc(F)c(C#N)c1)CC3` (stereo not drawn) [Compound 120, N-(3-cyano-4-fluorophenyl)-10-methyl-11-oxo-8-(((2,2,2-trifluoroethyl)amino)methyl)-1,3,4,7,8,9,10,11-octahydro-2H-pyrido[4′,3′:3,4]pyrazolo [1,5-a][1,4]diazepine-2-carboxamide], the EC50 was 1 to 100 nM.

For the compound `CN1CC(CNCC(F)(F)F)Cn2nc3c(c2C1=O)CN(C(=O)Nc1ccc(F)c(C(F)(F)F)c1)CC3` (stereo not drawn) [Compound 121, N-(4-fluoro-3-(trifluoromethyl)phenyl)-10-methyl-11-oxo-8-(((2,2,2-trifluoroethyl)amino)methyl)-1,3,4,7,8,9,10,11-octahydro-2H-pyrido[4′,3′:3,4]pyrazolo[1,5-a][1,4]diazepine-2-carboxamide], the 50% effective concentration (EC50) lay in the range of 1 to 100 nM.

As to `C=CC(O)C1CN(C)C(=O)c2c3c(nn2C1)CC(C)N(C(=O)Nc1ccc(F)c(Br)c1)C3` [Compound 124_D1, (3R,8S*)—N-(3-bromo-4-fluorophenyl)-8-((R*)-1-hydroxyallyl)-3,10-dimethyl-11-oxo-1,3,4,7,8,9,10,11-octahydro-2H-pyrido[4′,3′:3,4]pyrazolo[1,5-a][1,4]diazepine-2-carboxamide], the concentration for a half-maximal effect (EC50) was in the range of 1 to 100 nM.

Broadly, the EC50 is the concentration giving half of the maximal effect.

These data come from patent publication US10975077B2 (Novira Therapeutics, Inc., priority 2016, dated 2021).
